# Measured values taken from PubChem BioAssay AID651689 (The Scripps Research Institute Molecular Screening Center, 2012).
# Active and inactive are the calls of the source. No rule for the calls is given here.
# Molecular target: Mu-type opioid receptor (Homo sapiens) (UniProt P35372)
# Assay: mu opioid receptor agonists, OPRM1-only line – cell-based, luminescence, dose response, counter-screen for OPRM1-OPRD1 heterodimer activator project, late-stage follow-up (AID 651689)
# Conditions: luminescence activation counterscreen
# Chain of Mu-type opioid receptor (Homo sapiens) (P35372 whole entry, looked up): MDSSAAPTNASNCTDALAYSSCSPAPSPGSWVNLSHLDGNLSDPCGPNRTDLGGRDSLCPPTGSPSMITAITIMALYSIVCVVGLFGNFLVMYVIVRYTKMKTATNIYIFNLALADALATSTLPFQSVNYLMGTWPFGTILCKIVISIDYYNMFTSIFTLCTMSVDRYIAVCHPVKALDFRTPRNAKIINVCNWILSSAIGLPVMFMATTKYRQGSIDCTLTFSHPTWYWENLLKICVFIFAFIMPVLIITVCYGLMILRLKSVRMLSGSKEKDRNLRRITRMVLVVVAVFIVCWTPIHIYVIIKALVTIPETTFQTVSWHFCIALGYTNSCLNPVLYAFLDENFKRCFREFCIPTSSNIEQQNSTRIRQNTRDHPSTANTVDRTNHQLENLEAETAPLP
row,Structure (SMILES),EC50
1,OCC1(CCc2ccccc2)CCN(Cc2cc(F)ccc2-n2cccn2)CC1,> 40 µM (inactive)
2,CCOC(=O)C1(Cc2ccccc2)CCN(Cc2cccn2-c2nccs2)CC1,> 40 µM (inactive)
3,CCOC(=O)C1(CCc2ccccc2)CCN(Cc2ccccc2C)CC1,inactive
4,CCOC(=O)C1(CCOc2ccccc2)CCN(Cc2cccn2-c2cccnc2)CC1,inactive
5,CCOC(=O)C1(CCc2ccccc2)CCN(Cc2cc(C)cc(C)c2)CC1,> 40 µM (inactive)
6,CCOC(=O)C1(CC2CCCCO2)CCN(Cc2c(C)cc(C)cc2-n2cccn2)CC1 (stereo unspecified),7.4 µM
7,CCOC(=O)C1(CCCc2ccccc2)CCN(Cc2cnn(C)c2)CC1,> 40 µM (inactive)
8,CCOC(=O)C1(CCOc2ccccc2)CCN(Cc2ccc(O)c(OC)c2)CC1,> 40 µM (inactive)
9,CCOC(=O)C1(CCc2ccccc2)CCN(Cc2ccc(NC(C)=O)cc2)CC1,inactive
10,CCOC(=O)C1(Cc2ccccc2)CCN(Cc2cccn2-c2cccnc2)CC1,> 40 µM (inactive)
11,CCOC(=O)C1(CCc2ccccc2)CCN(Cc2ccc(OC(C)C)c(C#N)c2)CC1,> 40 µM (inactive)
